Assay results reported in patent US20160031839A1, “ARGININE […] INHIBITORS AND USES THEREOF” (EPIZYME, INC., priority 2013, published 2016).
Where two headings read alike, the source gives them in different places.

Legend:
[1] = test system: mono-methyl arginine in RKO cells; test: RKO Methylation Assay (In Cell Western); type: cell-based; details: Homo sapiens, 72 hours
From the text: RKO Methylation Assay RKO adherent cells were purchased from ATCC (American Type Culture Collection), Manassas, Va., USA. DMEM/Glutamax medium, penicillin-streptomycin, heat inactivated fetal bovine serum, 0.05% trypsin and D-PBS were purchased from Life Technologies, Grand Island, N.Y., USA. Odyssey blocking buffer, 800CW goat anti-rabbit IgG (H+L) antibody, and Licor Odyssey infrared scanner were purchased from Licor Biosciences, Lincoln, Nebr., USA. Mono-methyl arginine antibody was purchased from Cell Signaling Technology, Danvers, Mass., USA. Methanol was purchased from VWR, Franklin, Mass., USA. 10% Tween 20 was purchased from KPL, Inc., Gaithersburg, Md., USA. DRAQ5 was purchased from Biostatus Limited, Leicestershire, UK. RKO adherent cells were maintained in growth medium (DMEM/Glutamax medium supplemented with 10% v/v heat inactivated fetal bovine serum and 100 units/mL penicillin-streptomycin) and cultured at 37° C. under 5% CO2. Cell Treatment, in Cell Western (ICW) for Detection of Mono-Methyl Arginine and DNA Content. RKO cells were seeded in assay medium at a concentration of 20,000 cells per mL to a poly-D-lysine coated 384 well culture plate (BD Biosciences 356697) with 50 μL per well. Compound (100 nL) from a 96-well source plate was added directly to 384 well cell plate. Plates were incubated at 37° C., 5% CO2 for 72 hours. After three days of incubation, plates were brought to room temperature outside of the incubator for ten minutes and blotted on paper towels to remove cell media. 50 μL of ice cold 100% methanol was added directly to each well and incubated for 30 min at room temperature. After 30 min, plates were transferred to a Biotek EL406 plate washer and washed 2 times with 100 μL per well of wash buffer (1×PBS). Next 60 μL per well of Odyssey blocking buffer (Odyssey Buffer with 0.1% Tween 20 (v/v)) were added to each plate and incubated 1 hour at room temperature. Blocking buffer was removed and 20 μL per well of primary antibody was added (mono-methyl arginine diluted 1:200 in Odyssey buffer with 0.1% Tween 20 (v/v)) and plates were incubated overnight (16 hours) at 4° C. Plates were washed 5 times with 100 μL per well of wash buffer. Next 20 μL per well of secondary antibody was added (1:200 800CW goat anti-rabbit IgG (H+L) antibody, 1:1000 DRAQ5 (Biostatus limited) in Odyssey buffer with 0.1% Tween 20 (v/v)) and incubated for 1 hour at room temperature. The plates were washed 5 times with 100 μL per well wash buffer then 2 times with 100 μL per well of water. Plates were allowed to dry at room temperature then imaged on the Licor Odyssey machine which measures integrated intensity at 700 nm and 800 nm wavelengths. Both 700 and 800 channels were scanned. […] Each plate included fourteen control wells of DMSO only treatment (minimum activation) as well as fourteen control wells for maximum activation treated with 20 μM of a reference compound. The average of the ratio values for each control type was calculated and used to determine the percent activation for each test well in the plate. Reference compound was serially diluted three-fold in DMSO for a total of nine test concentrations, beginning at 20 μM. Percent activation was determined and EC30 curves were generated using triplicate

PRMT3 = target: T1, PRMT3 (Homo sapiens, UniProt O60678); test: PRMT3 Biochemical Assay
T1 construct: made in house; host or cells: E. coli BL21(DE3) Gold
T1 sequence (O60678 with tags, fused parts or gaps): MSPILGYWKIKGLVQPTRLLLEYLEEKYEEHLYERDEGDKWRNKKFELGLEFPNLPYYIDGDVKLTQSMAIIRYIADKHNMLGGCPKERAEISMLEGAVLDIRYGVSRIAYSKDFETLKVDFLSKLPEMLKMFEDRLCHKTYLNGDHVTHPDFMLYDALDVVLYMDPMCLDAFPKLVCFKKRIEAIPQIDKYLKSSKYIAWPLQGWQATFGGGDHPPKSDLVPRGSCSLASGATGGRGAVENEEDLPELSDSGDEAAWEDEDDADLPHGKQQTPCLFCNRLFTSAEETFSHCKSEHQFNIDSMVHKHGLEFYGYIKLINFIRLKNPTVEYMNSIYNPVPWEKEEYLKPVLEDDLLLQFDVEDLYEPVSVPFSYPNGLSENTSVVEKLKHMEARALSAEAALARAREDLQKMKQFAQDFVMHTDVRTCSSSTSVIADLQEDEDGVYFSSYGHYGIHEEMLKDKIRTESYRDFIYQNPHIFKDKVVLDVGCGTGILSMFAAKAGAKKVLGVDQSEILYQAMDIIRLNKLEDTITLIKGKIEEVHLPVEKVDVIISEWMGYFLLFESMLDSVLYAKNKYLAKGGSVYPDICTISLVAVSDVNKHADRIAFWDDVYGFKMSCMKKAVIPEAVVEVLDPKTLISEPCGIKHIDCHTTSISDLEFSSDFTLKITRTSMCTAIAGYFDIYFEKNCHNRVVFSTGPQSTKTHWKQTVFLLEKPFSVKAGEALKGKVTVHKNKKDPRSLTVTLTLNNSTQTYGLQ
From the text: Peptide containing the classic RMT substrate motif was synthesized with an N-terminal linker-affinity tag motif and a C-terminal amide cap by 21st Century Biochemicals. The peptide was purified by high-performance liquid chromatography (HPLC) to greater than 95% purity and confirmed by liquid chromatography mass spectrometry (LC-MS). The sequence was Biot-Ahx-[…]-amide (SEQ ID NO.:11).
Full-length human PRMT3 (NM_005788.3) isoform 1 transcript clone was amplified from an HEK 293 cDNA library and subcloned into pGEX-KG (GE Life Sciences). The resulting construct encodes an N-terminal GST tag and a thrombin cleavage sequence
GST-tagged PRMT3 was eluted with 50 mM Tris, 2 mM glutathione, pH 7.1 and 50 mM Tris, 20 mM glutathione, pH 7.1. Pooled fractions were dialysed in 20 mM Tris, 50 mM NaCl, 5% glycerol, 1 mM EDTA, 1 mM DTT, pH7.5 (Buffer B) and applied to a Q Sepharose Fast Flow column. GST-tagged PRMT3 was eluted by 500 mM NaCl in buffer B. Pooled fractions were dialyzed in 25 mM phosphate buffer, 100 mM NaCl, 5% glycerol, 2 mM DTT, pH 6.8 (Buffer C) and loaded on to a ceramic hydroxyapatite column. GST-tagged PRMT3 eluted with 25-400 mM phosphate in buffer C. Protein was concentrated and buffer was exchanged to 20 mM Tris, 150 mM NaCl, 5% glycerol, 5 mM β-mercaptoethanol, pH7.8 by ultrafiltration. The purity of recovered protein was 70%.
General Procedure for PRMT3 Enzyme Assays on Peptide Substrates.
The assays were all performed in a buffer consisting of 20 mM Bicine (pH=7.6), 1 mM TCEP, 0.005% BSG, and 0.002% Tween 20, prepared on the day of use. Compounds in 100% DMSO (1 ul) were spotted into a polypropylene 384-well V-bottom plates (Greiner) using a Platemate Plus outfitted with a 384-channel head (Thermo Scientific). DMSO (1 ul) was added to Columns 11, 12, 23, 24, rows A-H for the maximum signal control and 1 ul of SAH, a known product and inhibitor of PRMT3, was added to columns 11, 12, 23, 24, rows I-P for the minimum signal control. A cocktail (40 ul) containing the PRMT3 enzyme was added by Multidrop Combi (Thermo-Fisher). The compounds were allowed to incubate with PRMT3 for 30 min at room temperature, then a cocktail (10 ul) containing SAM and peptide was added to initiate the reaction (final volume=51 ul). The final concentrations of the components were as follows: PRMT3 was 0.5 nM, ^3H-SAM was 100 nM, non-radiolabeled SAM was 1.8 uM, peptide was 330 nM, SAH in the minimum signal control wells was 1 mM, and the DMSO concentration was 2%. The assays were stopped by the addition of potassium chloride (10 ul) to a final concentration of 100 mM. 50 ul of the reaction in the 384-well polypropylene plate was then transferred to a 384-well Flashplate and the biotinylated peptides were allowed to bind to the streptavidin surface for at least 1 hour before being washed once with 0.1% Tween20 in a Biotek ELx405 plate washer. The plates were then read in a PerkinElmer TopCount plate reader to measure the quantity of ^3H-labeled peptide bound to the Flashplate surface, measured as disintegrations per minute (dpm) or alternatively, referred to as counts per minute (cpm).
Where dpm=disintegrations per minute, cmpd=signal in assay well, and min and max are the respective minimum and maximum signal controls.
Where top and bottom are the normally allowed to float, but may be fixed at 100 or 0 respectively in a 3-parameter fit. The Hill Coefficient normally allowed to float but may also be fixed at 1 in a 3-parameter fit. Y is the % inhibition and X is the compound concentration.

[2] = numerical, single experiment or average of multiple experiments, read-out: In Cell Western EC30
[3] = read-out: In Cell Western EC30 (class)
[4] = Table 2, biochemical evaluation, read-out: PRMT3 IC50 (class)
[5] = Table 2a, numerical, single experiment or average of multiple experiments, read-out: PRMT3 IC50

CN(CCN)Cc1ncoc1-c1ccc(C#N)cc1 [Compound 1, 4-(4-(((2-aminoethyl)(methyl)amino)methyl)oxazol-5-yl)benzonitrile]
EC30 [1, 2]: 14.2 µM | EC30 [1, 3]: ≥ 12 µM | IC50 (PRMT3; [4]): > 10 µM | IC50 (PRMT3; [5]): > 10 µM

CN(CCN)Cc1ccnn1-c1ccc(C#N)cc1 [Compound 2, 4-(5-(((2-aminoethyl)(methyl)amino)methyl)-1H-pyrazol-1-yl)benzonitrile]
EC30 [1, 2]: 15.1 µM | EC30 [1, 3]: ≥ 12 µM | IC50 (PRMT3; [4]): > 10 µM | IC50 (PRMT3; [5]): > 10 µM

CN(CCN)Cc1n[nH]nc1-c1ccc(C#N)cc1 [Compound 3, 4-(5-(((2-aminoethyl)(methyl)amino)methyl)-2H-1,2,3-triazol-4-yl)benzonitrile]
EC30 [1, 2]: 18.6 µM | EC30 [1, 3]: ≥ 12 µM | IC50 (PRMT3; [4]): > 10 µM | IC50 (PRMT3; [5]): > 10 µM

CN(CCN)Cc1ocnc1-c1ccc(C#N)cc1 [Compound 4, 4-(5-(((2-aminoethyl)(methyl)amino)methyl)oxazol-4-yl)benzonitrile]
EC30 [1, 2]: 1.41 µM | EC30 [1, 3]: ≤ 3 µM

CN(CCN)Cc1cnnn1-c1ccc(C#N)cc1 [Compound 5, 4-(5-(((2-aminoethyl)(methyl)amino)methyl)-1H-1,2,3-triazol-1-yl)benzonitrile]
EC30 [1, 2]: > 20 µM | EC30 [1, 3]: ≥ 12 µM

CN(CCN)Cc1cncn1-c1ccc(C#N)cc1 [Compound 6, 4-(5-(((2-aminoethyl)(methyl)amino)methyl)-1H-imidazol-1-yl)benzonitrile]
EC30 [1, 2]: > 20 µM | EC30 [1, 3]: ≥ 12 µM

CN(CCN)Cc1nsnc1-c1ccc(C#N)cc1 [Compound 7, 4-(4-(((2-aminoethyl)(methyl)amino)methyl)-1,2,5-thiadiazol-3-yl)benzonitrile]
EC30 [1, 2]: > 20 µM | EC30 [1, 3]: ≥ 12 µM

CC(C)Oc1ccc(-n2nccc2CN(C)CCN)cc1 [Compound 8, N^1-((1-(4-isopropoxyphenyl)-1H-pyrazol-5-yl)methyl)-N^1-methylethane-1,2-diamine]
EC30 [1, 2]: 1.63 µM | EC30 [1, 3]: ≤ 3 µM

CN(CCN)Cc1ccnn1-c1ccc(Oc2ccccc2)cc1 [Compound 9]
EC30 [1, 2]: 2.31 µM | EC30 [1, 3]: ≤ 3 µM

CN(CCN)Cc1[nH]cnc1-c1ccc(C#N)cc1 [Compound 10, 4-(5-(((2-aminoethyl)(methyl)amino)methyl)-1H-imidazol-4-yl)benzonitrile]
EC30 [1, 2]: > 20 µM | EC30 [1, 3]: ≥ 12 µM

CN(CCN)Cc1oncc1-c1ccc(F)cc1 [Compound 11, N^1-((4-(4-fluorophenyl)isoxazol-5-yl)methyl)-N^1-methylethane-1,2-diamine]
EC30 [1, 2]: > 20 µM | EC30 [1, 3]: ≥ 12 µM
